Measurements: patent US8138158B2, “Compositions and methods for therapy for diseases characterized by defective chloride transport” (Children's Hospital & Research Center at Oakland, priority 1997, dated 2012)

Tested on: nasal potential difference
Experiment: Nasal potential difference measurement in a human volunteer (Knowles protocol)
Format: in vivo
Details: L-ascorbic acid 100 μM in luminal perfusate; amiloride, chloride-free solution
Procedure: In vivo, chloride secretion may be assessed using measurements of nasal potential differences in a mammal, such as a human or a mouse. […] The nasal potential difference is measured as the electrical potential measured on the nasal mucosa with respect to a skin electrode placed on a slightly scratched skin part (see Alton et al., Eur. Respir. J. 3:922-926, 1990) or with respect to a subcutaneous needle (see Knowles et al., Hum. Gene Therapy 6:445-455, 1995). Nasal potential difference is evaluated in the presence and absence of test compound, and those compounds that results in a statistically significant increase in nasal potential difference stimulate chloride transport.
The effect of quercetin on nasal potential difference (PD) measurement in a healthy human volunteer was measured as described by Knowles et al., Hum. Gene Therapy 6:445-455, 1995.
Nasal potential difference measurement was performed on a human volunteer according to a protocol by Knowles et al., Hum. Gene Therapy 6:445-455, 1995. Addition of L-ascorbic acid (100 μM) to the luminal perfusate in the nose (in the presence of amiloride (blocks Na currents) and in chloride-free solution) hyperpolarized nasal potential difference (PD) by 6.3 mV (FIG. 17). […] Stimulation was reversed by washing out drugs with NaCl Ringer solution.

O=C1O[C@H](C(O)CO)C(O)=C1O (stereo partly drawn) [L-ascorbic acid, L-xyloascorbic acid]
hyperpolarized nasal potential difference (PD) by: 6.3 mV
